The text below walks through data of ChEMBL document CHEMBL4680293, “Tubulin inhibitory activity of a novel colchicine-binding compounds based on a dinaphthospiropyranran scaffold” (Bioorg Med Chem, 2021).

Structures are written as SMILES. The source made the active and inactive calls. No cut-off for these calls is given here.

The assay concerns the target Tubulin (Homo sapiens) (UniProt P68371+Q9H4B7+P0DPH7+P68366+Q13509+Q71U36+P04350+Q3ZCM7+P07437+P68363+Q9BQE3+Q6PEY2+Q13885+Q9BVA1+Q9BUF5). The experiment in a line: Inhibition of tubulin (unknown origin) assessed as inhibition of tubulin polymerization at 10 uM measured for 50 mins by fluorescence based analysis. The class given is protein-complex assay.
With `C1=C2CCC3=Cc4c(ccc5ccccc45)OC23Oc2ccc3ccccc3c21`, the inhibition result was “Active”.
`C1=C2COCC3=Cc4c(ccc5ccccc45)OC23Oc2ccc3ccccc3c21`: the inhibition entry is “Active”.
Under `CC[C@]1(O)C[C@@H]2CN(CCc3c([nH]c4ccccc34)[C@@](C(=O)OC)(c3cc4c(cc3OC)N(C)[C@H]3[C@@](O)(C(=O)OC)[C@H](OC(C)=O)[C@]5(CC)C=CCN6CC[C@]43[C@@H]65)C2)C1` stands “Active”.
